Measurements reported in patent publication US11633444B2, “Sporoderm-removed Ganoderma lucidum spore powder, granule and preparation method thereof” (ZHEJIANG SHOUXIANGU PHARMACEUTICAL COMPANY, LTD, priority 2017, dated 2023).
Where a name gives a salt, the structure may show the parent alone.

What was measured:
Format in all cases: in vivo
[1] = tested on: human lymphatic cancer (Ramos) transplanted tumor; assay: Zebrafish human lymphatic cancer (Ramos) transplanted tumor model; conditions: 2 days at 35° C.; for Pixel of Sum of Fluorescence Intensities (mean ± SE): 5 μM
Text: Human lymphatic cancer (Ramos) cells were labeled with a red fluorescent dye (CM-Dil), and transplanted into zebrafish yolk sacs by microinjection, with about 200 cells being transplanted per zebrafish, so as to establish a zebrafish human lymphatic cancer transplanted tumor model.
(§1) Human lymphatic cancer (Ramos) cells were labeled with CM-Dil, and transplanted into 2 dpf wild type AB strain zebrafish yolk sacs by microinjection, with about 200 cells being transplanted per zebrafish, so as to establish a zebrafish human lymphatic cancer transplanted model; and the zebrafishes injected with the human lymphatic cancer cells were fed at 35° C. until 3 dpf.
Zebrafishes with better consistence in transplanted tumor cells were picked out under a microscope, randomly assigned to a 6-well plate, and were given in a water-dissolving administration manner respectively with the samples at concentrations respectively of 28, 83 and 250 μg/mL and the positive control drug vincristine at a concentration of 5 μM; and meanwhile a model control group was set, where there were 30 zebrafishes per well (concentration group), and the volume of each well was 5 mL. The zebrafishes in each experiment group were continually cultured at 35° C., and after 2 days, 10 zebrafishes were randomly selected from each experiment group to observe under a fluorescence microscope, and photographs of the 10 zebrafishes were taken and saved; and the photographs were analyzed using Nikon NIS-Elements D 3.10 Advanced image processing software to calculate the fluorescence intensities of cancer cells. The inhibitory effect of the sample on the zebrafish lymphatic cancer (Ramos) transplanted tumor was evaluated with the fluorescence intensities, and the tumor inhibition effect was calculated using the following equation.
A concentration-effect curve was drawn according to a growth inhibition effect on the transplanted tumor; statistical analysis was performed by variance analysis and Dunnett's T-test, where p<0.05 was considered as a significant difference; such that a representative experimental map was provided.

[2] = tested on: human gastric cancer (SGC-7901) transplanted tumor; assay: Zebrafish human gastric cancer (SGC-7901) transplanted tumor model; conditions: SGC-7901, 50 μM, 2 days at 35° C., n = 10
Text: Human gastric cancer (SGC-7901) cells were labeled with a red fluorescent dye (CM-Dil), and transplanted into zebrafish yolk sacs by microinjection, with about 200 cells being transplanted per zebrafish, so as to establish a zebrafish human gastric cancer transplanted tumor model.
as §1, with “Human gastric” for “Human lymphatic”, “cancer (SGC-7901)” for “cancer (Ramos)”, “human gastric” for “human lymphatic”, “cancer (SGC-7901)” for “cancer”, “the SGC-7901” for “the human lymphatic cancer”
(§2) Zebrafishes with better consistence in transplanted tumor cells were picked out under a microscope, randomly assigned to a 6-well plate, and were given in a water-dissolving administration manner respectively with the samples at concentrations respectively of 28, 83 and 250 μg/mL and the positive control drug cis-platinum at a concentration of 50 μM; and meanwhile a model control group was set, where there were 30 zebrafishes per well (concentration group), and the volume of each well was 5 mL. The zebrafishes in each experiment (concentration) group were continually cultured at 35° C., and after 2 days, 10 zebrafishes were randomly selected from each experiment (concentration) group to observe under a fluorescence microscope, and photographs of the 10 zebrafishes were taken and saved; and the photographs were analyzed using Nikon NIS-Elements D 3.10 Advanced image processing software to calculate the fluorescence intensities of cancer cells. The inhibitory effects of samples on the zebrafish gastric cancer (SGC-7901) transplanted tumor were respectively evaluated with the fluorescence intensities, and the tumor inhibition effect was calculated using the following equation. […]

[3] = tested on: human lung adenocarcinoma (A549) transplanted tumor; assay: Zebrafish human lung adenocarcinoma (A549) transplanted tumor model; conditions: A549, 50 μM, 2 days at 35° C., n = 10
Text: Human lung adenocarcinoma (A549) cells were labeled with a red fluorescent dye (CM-Dil), and transplanted into zebrafish yolk sacs by microinjection, with about 200 cells being transplanted per zebrafish, so as to establish a zebrafish human lung adenocarcinoma transplanted tumor model.
as §1, with “Human lung adenocarcinoma (A549)” for “Human lymphatic cancer (Ramos)”, “human lung adenocarcinoma (A549)” for “human lymphatic cancer”, “the A549” for “the human lymphatic cancer”
as §2, with “inhibitory effect” for “inhibitory effects”, “of the sample” for “of samples”, “zebrafish lung adenocarcinoma (A549)” for “zebrafish gastric cancer (SGC-7901)”, “tumor was” for “tumor were respectively”

CC[C@]1(O)C[C@H]2CN(CCc3c([nH]c4ccccc34)[C@@](C(=O)OC)(c3cc4c(cc3OC)N(C=O)[C@H]3[C@@](O)(C(=O)OC)[C@H](OC(C)=O)[C@]5(CC)C=CCN6CC[C@]43[C@@H]65)C2)C1 [Vincristine, Vincristine sulfate]
Pixel of Sum of Fluorescence Intensities (mean ± SE) ([1]; n = 10): 153919 ± 13691 pixels
Pixel of Sum of Fluorescence Intensities (mean ± SE) ([1]; n = 10, listed as vincristine): 153,919 pixels
inhibition at 5 µM ([1]; Danio rerio, 48 h, n = 10, read-out: Inhibition Effect): 33%

N.N.[Cl][Pt][Cl] [Cis-platinum]
Inhibition Effect [2]: 36%
Pixel of Sum of Fluorescence Intensities (mean ± SE) [2]: 237655 ± 12361 pixels
Pixel of Sum of Fluorescence Intensities (mean ± SE) ([2]; listed as cis-platinum): 237,655 pixels
Inhibition Effect [3]: 32%
Pixel of Sum of Fluorescence Intensities (mean ± SE) [3]: 137287 ± 7835 pixels
Pixel of Sum of Fluorescence Intensities (mean ± SE) ([3]; listed as cis-platinum): 137,287 pixels
